Relative viability data for 4 cell lines are collected here from the supplement of paper PMC10307832.

What all share (experiment): relative viability (nuclei count vs DMSO), 5 days (fraction); higher = more cells survive
Compound in test [1]: CN(C)C(=N)NC(=N)N [Metformin] + CC(C)C[C@H](NC(=O)[C@H](Cc1ccccc1)NC(=O)c1cnccn1)B(O)O [Bortezomib] (partner 0.002 µM)
Summed up:
(§1)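 One day after seeding in 1536-well plates, lung cancer cell lines were dosed by pin tool. Dosing was either single-drug or a fixed anchor-drug dose plus five library-drug doses (not always all listed) in √10 steps. After 5 days, nuclei were stained in one fix-and-stain step and counted on 4× images, and relative viability is the nuclei count of treated wells over that of vehicle wells, given as the median of duplicate plates.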

Compound in test [2]: CN(C)C(=N)NC(=N)N [Metformin] + Nc1nc2[nH]cc(CCc3ccc(C(=O)N[C@@H](CCC(=O)O)C(=O)O)cc3)c2c(=O)[nH]1 [Pemetrexed] (partner 0.2 µM)
Summed up: as §1

Compound in test [3]: CN(C)C(=N)NC(=N)N [Metformin] + CC1(C)CCC(c2ccc(Cl)cc2)=C(CN2CCN(c3ccc(C(=O)NS(=O)(=O)c4ccc(N[C@H](CCN5CCOCC5)CSc5ccccc5)c(S(=O)(=O)C(F)(F)F)c4)cc3)CC2)C1 [Navitoclax] (partner 0.5 µM)
Summed up: as §1

Compound in test [4]: N#CC1(c2ccc(NC(=O)c3cccnc3NCc3ccncc3)cc2)CCCC1 [Apatinib] + N=C(N)NC(=N)NCCc1ccccc1 [Phenformin] (partner 250 µM)
Summed up:
as §1

Consider PC-14, for which the relative viability in test [1] (first compound 10 µM) stood at 0.818; in test [1] (first compound 31.62 µM), 0.943; in test [1] (first compound 100 µM), 0.767; in test [1] (first compound 316.23 µM) it was 0.906; in test [1] (first compound 1000 µM), 0.82; in test [2] (first compound 10 µM) it was 0.167. For the same cell line, the relative viability in test [2] (first compound 31.62 µM) was 0.154; in test [2] (first compound 100 µM) it was 0.164; in test [2] (first compound 316.23 µM) it was 0.14; in test [2] (first compound 1000 µM) it was 0.157; in test [3] (first compound 10 µM), 0.968; in test [3] (first compound 31.62 µM), 0.958. For the same cell line, the relative viability in test [3] (first compound 100 µM) came to 0.998; in test [3] (first compound 316.23 µM), 1; in test [3] (first compound 1000 µM), 0.989; in test [4] (first compound 0.08 µM), 0.445; in test [4] (first compound 0.253 µM) it was 0.793; in test [4] (first compound 2.53 µM) it was 0.476. Further, the relative viability in test [4] (first compound 8 µM) is 0.446.

Regarding NCI-H650, the relative viability came to 0.989 in test [1] (first compound 10 µM); 1.12 in test [1] (first compound 31.62 µM); 0.781 in test [1] (first compound 100 µM); 0.782 in test [1] (first compound 316.23 µM); 1.18 in test [1] (first compound 1000 µM); 0.846 in test [2] (first compound 10 µM). The relative viability in test [2] (first compound 31.62 µM) worked out at 0.993; in test [2] (first compound 100 µM) it was 0.878; in test [2] (first compound 316.23 µM) it was 0.941; in test [2] (first compound 1000 µM), 1.1; in test [4] (first compound 0.08 µM) it was 0.405; in test [4] (first compound 0.253 µM) it was 0.413. In addition, the relative viability came to 0.447 in test [4] (first compound 0.8 µM), 0.385 in test [4] (first compound 2.53 µM) and 0.374 in test [4] (first compound 8 µM).

For the cell line NCI-H2405, the relative viability was 0.55 in test [1] (first compound 10 µM); 1.01 in test [1] (first compound 31.62 µM); 0.972 in test [1] (first compound 100 µM); 0.924 in test [1] (first compound 316.23 µM); 0.613 in test [1] (first compound 1000 µM); 1.16 in test [2] (first compound 31.62 µM). For the same cell line, the relative viability was 1.04 in test [2] (first compound 100 µM); 0.619 in test [2] (first compound 316.23 µM); 0.679 in test [2] (first compound 1000 µM); 0.869 in test [3] (first compound 10 µM); 1.26 in test [3] (first compound 31.62 µM); 0.988 in test [3] (first compound 100 µM). For the same cell line, the relative viability in test [3] (first compound 316.23 µM) came out at 1.07; in test [3] (first compound 1000 µM), 1.09; in test [4] (first compound 0.08 µM), 0.392; in test [4] (first compound 0.253 µM), 0.392; in test [4] (first compound 0.8 µM) it was 0.394; in test [4] (first compound 2.53 µM) it was 0.33. The relative viability in test [4] (first compound 8 µM) was 0.344.

On to NCI-H2228, for which the relative viability in test [1] (first compound 10 µM) worked out at 1.44; in test [1] (first compound 31.62 µM), 1.09; in test [1] (first compound 316.23 µM), 0.956; in test [1] (first compound 1000 µM) it was 1.13; in test [2] (first compound 10 µM), 0.313; in test [2] (first compound 31.62 µM), 0.199. Besides, the relative viability was found to be 0.381 in test [2] (first compound 100 µM); 0.28 in test [2] (first compound 316.23 µM); 0.337 in test [2] (first compound 1000 µM); 1.02 in test [3] (first compound 10 µM); 1.04 in test [3] (first compound 31.62 µM); 0.815 in test [3] (first compound 316.23 µM). Besides, the relative viability in test [3] (first compound 1000 µM) came to 1.05; in test [4] (first compound 0.08 µM), 0.423; in test [4] (first compound 0.253 µM), 0.284; in test [4] (first compound 0.8 µM), 0.223; in test [4] (first compound 2.53 µM), 0.29; in test [4] (first compound 8 µM), 0.301.
